# Legend:
# [1] = target: T1, human TLR7 (hTLR7) (Homo sapiens, UniProt Q9NYK1); assay: Human TLR7 agonist activity assay (HEK-Blue TLR7 SEAP reporter); assay type: cell-based; conditions: HEK-Blue TLR7 cells, 18 h incubation, Quanti-Blue, OD 620 nm, some values average of multiple measurements
# T1 construct: host or cells: HEK-Blue TLR7 cells (engineered human embryonic kidney cells)
# T1 sequence (Q9NYK1 27-1049): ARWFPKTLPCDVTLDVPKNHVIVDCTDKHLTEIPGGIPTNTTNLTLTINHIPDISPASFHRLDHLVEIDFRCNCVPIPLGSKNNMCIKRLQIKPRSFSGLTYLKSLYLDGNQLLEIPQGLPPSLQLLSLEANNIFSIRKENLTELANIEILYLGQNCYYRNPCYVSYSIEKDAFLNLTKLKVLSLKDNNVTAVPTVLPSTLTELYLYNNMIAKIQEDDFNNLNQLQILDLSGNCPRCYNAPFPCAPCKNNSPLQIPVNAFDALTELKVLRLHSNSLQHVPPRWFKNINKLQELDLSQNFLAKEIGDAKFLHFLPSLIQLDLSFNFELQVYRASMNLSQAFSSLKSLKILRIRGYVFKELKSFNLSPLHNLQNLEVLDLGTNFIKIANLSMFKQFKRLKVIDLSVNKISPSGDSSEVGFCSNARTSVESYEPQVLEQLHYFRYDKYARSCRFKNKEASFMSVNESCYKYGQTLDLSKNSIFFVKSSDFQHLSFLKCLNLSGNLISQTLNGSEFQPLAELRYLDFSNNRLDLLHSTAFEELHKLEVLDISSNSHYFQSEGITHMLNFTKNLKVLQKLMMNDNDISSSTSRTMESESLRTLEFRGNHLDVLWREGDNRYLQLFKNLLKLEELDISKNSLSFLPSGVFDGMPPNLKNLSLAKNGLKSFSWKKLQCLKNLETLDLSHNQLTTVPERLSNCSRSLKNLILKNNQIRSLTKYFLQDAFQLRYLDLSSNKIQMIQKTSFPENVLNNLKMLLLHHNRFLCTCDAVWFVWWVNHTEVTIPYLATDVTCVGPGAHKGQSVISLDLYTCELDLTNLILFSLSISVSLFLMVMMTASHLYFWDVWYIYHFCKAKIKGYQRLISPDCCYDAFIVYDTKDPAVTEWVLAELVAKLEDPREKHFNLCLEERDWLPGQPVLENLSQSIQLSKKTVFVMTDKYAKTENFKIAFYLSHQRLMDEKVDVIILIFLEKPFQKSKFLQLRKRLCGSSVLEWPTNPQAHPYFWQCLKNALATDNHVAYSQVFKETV
# How it was run: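 HEK-Blue TLR7 cells seeded 16-18 h, then exposed to compound for 18 h at 37 °C, 5% CO2. Secreted SEAP read with Quanti-Blue at OD 620 nm after 30 min. EC50 taken as concentration giving half-maximal response between baseline and maximum; some values averaged over repeats.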
# [2] = target: T2, human TLR8 (hTLR8) (Homo sapiens, UniProt Q9NR97); assay: Human TLR8 agonist activity assay (measured in a similar manner); assay type: cell-based; conditions: HEK-Blue TLR cells, SEAP reporter, measured in a similar manner to TLR7; some values average of multiple measurements
# T2 construct: expressed in transfected cells
# T2 sequence (Q9NR97 27-1041): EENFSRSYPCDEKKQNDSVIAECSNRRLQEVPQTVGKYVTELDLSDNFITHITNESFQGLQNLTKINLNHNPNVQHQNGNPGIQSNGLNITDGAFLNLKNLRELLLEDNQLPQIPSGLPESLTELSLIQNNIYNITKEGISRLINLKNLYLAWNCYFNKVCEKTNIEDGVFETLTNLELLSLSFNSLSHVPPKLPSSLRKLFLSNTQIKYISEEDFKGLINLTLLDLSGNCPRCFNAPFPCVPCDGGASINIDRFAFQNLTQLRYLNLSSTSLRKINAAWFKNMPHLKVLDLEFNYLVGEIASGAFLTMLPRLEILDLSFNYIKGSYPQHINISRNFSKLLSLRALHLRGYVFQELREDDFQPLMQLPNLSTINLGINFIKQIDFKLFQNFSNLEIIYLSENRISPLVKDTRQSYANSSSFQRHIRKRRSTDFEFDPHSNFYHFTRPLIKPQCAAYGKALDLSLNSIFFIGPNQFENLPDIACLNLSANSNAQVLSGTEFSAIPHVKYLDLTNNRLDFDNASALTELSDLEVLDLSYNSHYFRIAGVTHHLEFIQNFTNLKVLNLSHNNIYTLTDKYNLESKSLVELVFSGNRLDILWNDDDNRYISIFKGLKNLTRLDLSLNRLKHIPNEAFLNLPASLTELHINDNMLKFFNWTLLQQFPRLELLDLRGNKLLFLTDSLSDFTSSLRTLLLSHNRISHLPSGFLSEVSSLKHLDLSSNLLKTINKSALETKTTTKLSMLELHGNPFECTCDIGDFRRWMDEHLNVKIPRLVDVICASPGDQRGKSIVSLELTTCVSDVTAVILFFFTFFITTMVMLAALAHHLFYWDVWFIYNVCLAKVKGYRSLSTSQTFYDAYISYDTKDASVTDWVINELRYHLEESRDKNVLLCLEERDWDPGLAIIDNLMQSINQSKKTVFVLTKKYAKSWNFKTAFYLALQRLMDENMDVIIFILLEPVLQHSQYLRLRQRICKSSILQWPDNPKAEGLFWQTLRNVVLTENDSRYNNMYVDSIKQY
# How it was run: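 Compounds were added to HEK-Blue TLR8 reporter cells, pre-incubated 16-18 h, then treated 18 h at 37° C, 5% CO2. SEAP output was measured with Quanti-Blue (30 min) at OD 620 nm. Some values are averages of multiple measurements.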
EC50 [1] [nM],EC50 [2] [nM],SMILES
781,1400,CCCCN(CCO)c1nc(N)nc2cn(Cc3ccc(CN[C@H]4C[C@H](OC)C4)n4ccnc34)nc12 [Compound 188]
793,570,"CCCCN(CCO)c1nc(N)nc2cn(Cc3ccc(CNC(C)(C)C)n4ncnc34)nc12 [Compound 189, 2-((5-Amino-2-((5-((tert-butylamino)methyl)-[1,2,4]triazolo[1,5-a]pyridin-8-yl)methyl)-2H-pyrazolo[4,3-d]pyrimidin-7-yl)(butyl)amino)ethan-1-ol]"
563,1680,CCCCN(CCO)c1nc(N)nc2cn(Cc3c(F)cc(C4=CCC(NC5CCOCC5)CC4)cc3OC)nc12 (stereo not drawn) [Compound 190]
550,1600,CCCCN(CCO)c1nc(N)nc2cn(Cc3c(F)cc(C4=CCC(NC5CC6(COC6)C5)CC4)cc3OC)nc12 (stereo not drawn) [Compound 192]
333,1080,CCCCN(CCO)c1nc(N)nc2cn(Cc3c(F)cc(C4=CCC(NCCOC)CC4)cc3OC)nc12 (stereo not drawn) [Compound 193]
422,1130,CCCCN(CCO)c1nc(N)nc2cn(Cc3c(F)cc(C4=CC[C@@H](NC5CC6(COC6)C5)CC4)cc3OC)nc12 [Compound 194]
541,1750,CCCCN(CCO)c1nc(N)nc2cn(Cc3c(F)cc(C4CCC(N(C)C5CC6(COC6)C5)CC4)cc3OC)nc12 (stereo not drawn) [Compound 195]
570,2740,CCCCN(CCO)c1nc(N)nc2cn(Cc3c(F)cc(C4=CCC(N(CCO)CCO)CC4)cc3OC)nc12 (stereo not drawn) [Compound 197]
1310,2270,CCCCN(CCO)c1nc(N)nc2cn(Cc3ccc(CN[C@@H]4CCCN(C(=O)CN)C4)c4cccnc34)nc12 [Compound 198]
274,1620,CCCCN(CCO)c1nc(N)nc2cn(Cc3c(F)cc(C4CCC(N(C)CCOC)CC4)cc3OC)nc12 (stereo not drawn) [Compound 199]
301,879,"CCCCN(CCO)c1nc(N)nc2cn(Cc3ccc(CN[C@@H]4CCCN(S(C)(=O)=O)C4)c4cccnc34)nc12 [Compound 200, (R)-2-((5-Amino-2-((5-(((1-(methylsulfonyl)piperidin-3-yl)amino)methyl)quinolin-8-yl)methyl)-2H-pyrazolo[4,3-d]pyrimidin-7-yl)(butyl)amino) ethan-1-ol]"
1350,3140,CCCCN(CCO)c1nc(N)nc2cn(Cc3ncc(CNC(C)(C)C)cc3OC)nc12 [Compound 201]
614,725,CCCCN(CCO)c1nc(N)nc2cn(Cc3ccc(CNC4CCCOC4)c4scnc34)nc12 (stereo not drawn) [Compound 202]
1900,1190,CCCCN(CCO)c1nc(N)nc2cn(Cc3ccc(CNC4CCOCC4)c4nccnc34)nc12 [Compound 206]
2380,1180,CCCCN(CCO)c1nc(N)nc2cn(Cc3ccc(CNC4CCC4)c4cn[nH]c34)nc12 [Compound 207]
1890,1270,CCCCN(CCO)c1nc(N)nc2cn(Cc3ccc(CNCCOC)c4nccnc34)nc12 [Compound 208]
148,112,"CCCCN(CCO)c1nc(N)nc2c(C)n(Cc3ccc(CNC4CCOCC4)cc3OC)nc12 [Compound 212, 2-((5-Amino-2-(2-methoxy-4-(((tetrahydro-2H-pyran-4-yl)amino)methyl)benzyl)-3-methyl-2H-pyrazolo[4,3-d]pyrimidin-7-yl) (butyl)amino) ethan-1-ol]"
396,677,CCCCN(CCO)c1nc(N)nc2cn(Cc3ccc(CNC4CCS(=O)(=O)CC4)c4scnc34)nc12 [Compound 213]

# — US20250282776A1, “Bicyclic TLR7 Agonists and Uses Thereof” (Bristol-Myers Squibb Company, priority 2024, published 2025)
